Data as given in patent publication EP2292587A1, “PHARMACEUTICAL COMPOSITION FOR INHIBITING THE TRANSCRIPTION FACTOR INDUCIBLE BY HYPOXIA, MODULATORS OF PATHOLOGICAL PROCESSES OF ANGIOGENESIS, ONCOGENESIS, INFLAMMATION, APOPTOSIS, AND CELLULAR THERAPY” (Fundacion De La Comunidad Valenciana Centro De …, priority 2008, dated 2009).

Columns and labels:
[1] = tested on: mTOR; test: activation kinetics of mTOR signaling pathway, HCT116/p53-/-; assay type: cell-based, human; conditions: 0.5 µM
Experimental: Due to the crucial role of p53 as a tumor-suppressing agent, it was analyzed in HCT116 cells how FM19G11 affected the activation kinetics of proteins involved in favoring cell cycle progress, specifically the mTOR cell signaling pathway. An increase of cell progress can be due to replicative stress which generates DNA damage (Bartkova, J, Horejsi, Z, Koed, K, Kramer, A, Tort, F, Zieger, K et al., (2005) DNA damage response as a candidate anti-cancer barrier in early human tumorigenesis. Nature 434: 864-70; Bartkova, J, Rezaei, N, Liontos, M, Karakaidos, P, Kletsas, D, Issaeva, N et al., (2006) Oncogene-induced senescence is part of the tumorigenesis barrier imposed by DNA damage checkpoints. Nature 444: 633-7; Di Micco, R, Fumagalli, M, Cicalese, A, Piccinin, S, Gasparini, P, Luise, C et al., (2006) Oncogene-induced senescence is a DNA damage response triggered by DNA hyper-replication. Nature 444: 638-42), it was explored if the DDR triggered by FM19G11 was related to an increase of the cell cycle progress signal modulated by the mTOR signaling pathway. […]

[2] = tested on: PHD3, HIF1α and HIF2α; test: Western blot of HIF target proteins in HeLa9XHRE-LUC cells; assay type: cell-based; design: dose or concentration left out as unconfirmed; conditions: hypoxic conditions, 9 hours
Experimental: The HeLa9XHRE/LUC cells were lysed with a hypotonic buffer (10 mM Tris-HCl, pH 7.5, 1.5 mM MgCl2, I mM KCIO, 2 mM DTT, 1 mM Pefabloc, 2 mM sodium vanadate, 4 µg/ml pepstatin, 4 µg/ml leupeptin, and 4 µg/ml aprotinin), preserved 20 minutes in ice and subsequently centrifuged for 10 minutes at 1,200 rpm, collecting the supernatant and preserving it at -20°C until its use. The quantification of the proteins was performed with colorimetric Coomassie blue method described by Bradford. A commercial system was used following the manufacturer's instructions (PIERCE Chem Co., Rockford III. USA). Bovine serum albumin (A-7906, SIGMA Chem Co., St. Louis MO, USA) was used to generate a standard curve (0-200 µg of protein). Five microliters of each sample were pipetted in a 96-well plate and […] of the Coomassie solution were added and it was maintained in darkness for 5 minutes at room temperature and the absorbance at OD 595 nm was measured in a spectrophotometer. By means of the Graph-Pad statistical program, the standard line was calculated and the values were extrapolated for each of the samples. The final values were expressed as mcg/mcl of protein. The electrophoresis of proteins of the extract was carried out in polyacrylamide gels under denaturing conditions (SDS-PAGE). A commercial mixture of proteins for low molecular mass polypeptides (Amersham) was used as a molecular size standard. […]

## Cc1ccc(C(=O)COC(=O)c2cccc(NC(=O)c3ccc([N+](=O)[O-])cc3[N+](=O)[O-])c2)cc1 [FM19G11, 2-oxo-2-(p-tolyl)ethyl 3-((2,4-dinitro)benzamido)benzoate]
[1]
  mTOR phosphorylation (fold change): ≤ 2
[2]
  expression of HIF 1α and 2α, as well as of PHD3: decrease
